These results are taken from article PMC7296983 (Journal of medicinal chemistry, 2019).

The test system of series [1] is NNMT. The note with it: cited from earlier work.
In a further series the test system is HCT116. In kind it is in vitro ADME. The note with it: human, 100 μM.
Series [2] concerns the target T1, NNMT (Homo sapiens, UniProt P40261).
T1 sequence (P40261 1-264): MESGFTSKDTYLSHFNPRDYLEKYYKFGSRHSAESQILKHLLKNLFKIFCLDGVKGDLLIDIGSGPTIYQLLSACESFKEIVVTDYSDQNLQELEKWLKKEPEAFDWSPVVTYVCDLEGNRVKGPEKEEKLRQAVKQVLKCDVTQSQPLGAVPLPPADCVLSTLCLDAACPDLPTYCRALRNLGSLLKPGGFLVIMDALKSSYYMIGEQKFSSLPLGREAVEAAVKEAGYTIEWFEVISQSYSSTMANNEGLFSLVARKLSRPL
Description: SAH hydrolase. In kind it is biochemical. To be noted: for activity compared to respective parent compound 1g, 1h and 3a: aspartic replaced by glutamic amino acid portion.

The target in a further series is PRMT1 (Homo sapiens, UniProt Q99873). In words: Selectivity assay, SAHH-coupled fluorescence. In kind it is biochemical.
The next series has as its target TbPRMT7 (Trypanosoma brucei brucei, UniProt Q582G4). Description: biochemical.
For another series, the target named is T2, NTMT1 (Homo sapiens, UniProt Q9BV86).
T2 sequence (Q9BV86 1-223): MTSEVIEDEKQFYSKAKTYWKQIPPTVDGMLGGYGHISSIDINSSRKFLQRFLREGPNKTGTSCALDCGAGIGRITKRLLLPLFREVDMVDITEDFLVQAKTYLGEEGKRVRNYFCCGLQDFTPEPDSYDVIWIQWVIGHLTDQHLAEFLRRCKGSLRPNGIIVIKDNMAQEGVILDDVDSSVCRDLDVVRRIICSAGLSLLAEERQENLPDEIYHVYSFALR
Description: Selectivity assay, SAHH-coupled fluorescence. In kind it is biochemical. To be noted: read-out: Enzyme activity (%).

The subject of series [3] is NNMT. To be noted: cited from earlier work. This is another data set of the same source.
For series [4], the target named is NNMT. The note with it: cited from earlier work. The source holds these as a separate data set.
Substrate in the series “SAH hydrolase”: C[S+](CC[C@H](N)C(=O)[O-])C[C@H]1O[C@@H](n2cnc3c(N)ncnc32)[C@H](O)[C@@H]1O
In words: SAH hydrolase. In kind it is biochemical, human. To be noted: other: substrate and cofactor, Figure S1; pH 7.5; 37.0 °C.

Substrate in series [5]: NC(=O)c1cccnc1
In words: purified protein, by the assay type. The note with it: other: substrate and cofactor, Figure S1; pH 7.5; 37.0 °C.

Chain of PRMT1 (Q99873 whole entry, species assumed): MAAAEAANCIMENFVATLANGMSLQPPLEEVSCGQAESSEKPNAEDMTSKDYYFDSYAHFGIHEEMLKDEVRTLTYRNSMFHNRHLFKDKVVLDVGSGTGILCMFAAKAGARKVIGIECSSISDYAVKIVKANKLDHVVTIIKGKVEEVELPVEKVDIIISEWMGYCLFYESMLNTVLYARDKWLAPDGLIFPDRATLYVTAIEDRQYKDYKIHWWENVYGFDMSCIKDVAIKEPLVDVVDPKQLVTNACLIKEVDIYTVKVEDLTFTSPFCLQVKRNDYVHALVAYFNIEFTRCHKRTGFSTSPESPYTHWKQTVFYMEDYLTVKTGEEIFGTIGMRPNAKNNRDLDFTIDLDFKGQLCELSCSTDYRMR
Chain of TbPRMT7 (Q582G4 whole entry): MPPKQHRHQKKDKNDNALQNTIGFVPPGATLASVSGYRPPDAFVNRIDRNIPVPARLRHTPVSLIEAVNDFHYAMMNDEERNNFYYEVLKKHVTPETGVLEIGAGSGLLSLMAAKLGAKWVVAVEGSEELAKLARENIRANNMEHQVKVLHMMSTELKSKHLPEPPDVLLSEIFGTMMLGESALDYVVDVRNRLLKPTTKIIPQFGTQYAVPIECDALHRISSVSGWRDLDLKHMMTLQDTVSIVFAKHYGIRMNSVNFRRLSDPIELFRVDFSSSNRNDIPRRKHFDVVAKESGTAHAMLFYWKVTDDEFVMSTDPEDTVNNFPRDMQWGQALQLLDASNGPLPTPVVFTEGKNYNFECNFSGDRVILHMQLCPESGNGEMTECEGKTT

For `Cc1ccncc1C(N)=O` [4-methylnicotinamide], in the series on NNMT [1], the “Km relative to nicotinamide” value is “comparable to nicotinamide”.
`NC(=O)c1cccc(CCCN(CC[C@H](N)C(=O)O)C[C@H]2O[C@@H](n3cnc4c(N)ncnc43)[C@H](O)[C@@H]2O)c1` [Compound 1a]: in the series on HCT116, the “cell permeability (MS detection of cellular levels)” value was “barely exhibited enhanced cell permeability”.
As for `Cc1ccc(C(N)=O)cc1CCCN(CC[C@H](N)C(=O)O)C[C@H]1O[C@@H](n2cnc3c(N)ncnc32)[C@H](O)[C@@H]1O` [Compound 1b, (S)-2-amino-4-((((2R,3S,4R,5R)-5-(6-amino-9H-purin-9-yl)-3,4dihydroxytetrahydrofuran-2-yl)methyl)(3-(5-carbamoyl-2methylphenyl)propyl)amino)butanoic acid], the “decrease of inhibitory activity compared with 1a” value (“decrease of inhibitory activity” below) on NNMT [2] is given as “more than 3 fold”.
As to `Cc1ccc(CCCN(CC[C@H](N)C(=O)O)C[C@H]2O[C@@H](n3cnc4c(N)ncnc43)[C@H](O)[C@@H]2O)cc1C(N)=O` [Compound 1c, (S)-2-amino-4-((((2R,3S,4R,5R)-5-(6-amino-9H-purin-9-yl)-3,4dihydroxytetrahydrofuran-2-yl)methyl)(3-(3-carbamoyl-4methylphenyl)propyl)amino)butanoic acid], the “decrease of inhibitory activity” value on NNMT [2] is “marginally affected the inhibition”.
The same measure, in the same setting: under `NC(=O)c1cccc(CCCN(CCC[C@H](N)C(=O)O)C[C@H]2O[C@@H](n3cnc4c(N)ncnc43)[C@H](O)[C@@H]2O)c1` [Compound 1d, (S)-2-amino-5-((((2R,3S,4R,5R)-5-(6-amino-9H-purin-9-yl)-3,4-dihydroxytetrahydrofuran-2-yl)methyl)(3-(3-arbamoylphenyl)propyl)amino)pentanoic acid] stands 70 fold.
`Nc1ncnc2c1ncn2[C@@H]1O[C@H](CN(CCCc2cccc3ccccc23)CCC[C@H](N)C(=O)O)[C@@H](O)[C@H]1O` [Compound 1e, (S)-2-amino-5-((((2R,3S,4R,5R)-5-(6-amino-9H-purin-9-yl)-3,4-dihydroxytetrahydrofuran-2-yl)methyl)(3-(naphthalen-1-yl)propyl)amino)pentanoic acid]: at NNMT [2], the “activity compared to respective parent compound 1g, 1h and 3a” value is listed as “either comparable or 3-fold decreased activities”.
Same read-out and setting: then `Nc1ncnc2c1ncn2[C@@H]1O[C@H](CN(CCCc2ccc3ccccc3c2)CCC[C@H](N)C(=O)O)[C@@H](O)[C@H]1O` [Compound 1f, (S)-2-amino-5-((((2R,3S,4R,5R)-5-(6-amino-9H-purin-9-yl)-3,4-dihydroxytetrahydrofuran-2-yl)methyl)(3-(naphthalen-2-yl)propyl)amino)pentanoic acid], with “either comparable or 3-fold decreased activities”.
With `COC(=O)c1cccc(CCCN(CC[C@H](N)C(=O)O)C[C@H]2O[C@@H](n3cnc4c(N)ncnc43)[C@H](O)[C@@H]2O)c1` [Compound 1j, (S)-2-amino-4-((((2R,3S,4R,5R)-5-(6-amino-9H-purin-9-yl)-3,4-dihydroxytetrahydrofuran-2-yl)methyl)(3-(3-(methoxycarbonyl)phenyl)propyl)amino)butanoic acid], the “decrease of inhibitory activity” value at NNMT [2] is listed as “about 700 fold”.
For orientation: IC50 means the midpoint of a concentration-inhibition curve. Lower therefore signals greater potency in that assay. As to `NC(=O)c1cccc(C#CCN(CC[C@H](N)C(=O)O)C[C@H]2O[C@@H](n3cnc4c(N)ncnc43)[C@H](O)[C@@H]2O)c1` [Compound 2a, (S)-2-amino-4-((((2R,3S,4R,5R)-5-(6-amino-9H-purin-9-yl)-3,4-dihydroxytetrahydrofuran-2-yl)methyl)(3-(3-carbamoylphenyl)prop-2-yn-1-yl)amino)butanoic acid], the 50% inhibitory concentration (IC50) against PRMT1 was above 100 µM; against TbPRMT7, above 33 µM. Besides, the remaining activity at 3.7 µM on NTMT1 stood at 64%.
As to `NC(=O)c1cccc(C#CCN(CC[C@H](N)C(=O)O)C[C@H]2O[C@@H](n3cnc4c(N)ncnc43)[C@H](O)[C@@H]2O)c1` [Compound 2a], the “cell permeability (MS detection of cellular levels)” value in the series on HCT116 was “limited permeability”.
For the molecule `COc1ccc(C(N)=O)cc1C#CCN(CC[C@H](N)C(=O)O)C[C@H]1O[C@@H](n2cnc3c(N)ncnc32)[C@H](O)[C@@H]1O` [Compound 2b, (S)-2-amino-4-((((2R,3S,4R,5R)-5-(6-amino-9H-purin-9-yl)-3,4-dihydroxytetrahydrofuran-2-yl)methyl)(3-(5-carbamoyl-2-methoxyphenyl)prop-2-yn-1-yl)amino)butanoic acid], the “loss of activity compared to 2a” value at NNMT [2] was 7 fold.
The same measure, in the same setting: under `Cc1ccc(C#CCN(CC[C@H](N)C(=O)O)C[C@H]2O[C@@H](n3cnc4c(N)ncnc43)[C@H](O)[C@@H]2O)cc1C(N)=O` [Compound 2c, (S)-2-amino-4-((((2R,3S,4R,5R)-5-(6-amino-9H-purin-9-yl)-3,4-dihydroxytetrahydrofuran-2-yl)methyl)(3-(3-carbamoyl-4-methylphenyl)prop-2-yn-1-yl)amino)butanoic acid] stands “comparable activity”; under `NC(=O)c1cccc(C#CCNC[C@H]2O[C@@H](n3cnc4c(N)ncnc43)[C@H](O)[C@@H]2O)c1` [Compound 2d, 3-(3-((((2R,3S,4R,5R)-5-(6-amino-9H-purin-9-yl)-3,4-dihydroxytetrahydrofuran-2-yl)methyl)amino)prop-1-yn-1-yl)benzamide], around 500 fold.
As for `NC(=O)c1cccc(CCCCN(CCC[C@H](N)C(=O)O)C[C@H]2O[C@@H](n3cnc4c(N)ncnc43)[C@H](O)[C@@H]2O)c1` [Compound 3b, (S)-2-amino-5-((((2R,3S,4R,5R)-5-(6-amino-9H-purin-9-yl)-3,4-dihydroxytetrahydrofuran-2-yl)methyl)(4-(3-carbamoylphenyl)butyl)amino)pentanoic acid], the “activity compared to respective parent compound 1g, 1h and 3a” value at NNMT [2] is “either comparable or 3-fold decreased activities”.
On to `NC(=O)c1cccc(CCN(CCC[C@H](N)C(=O)O)C[C@H]2O[C@@H](n3cnc4c(N)ncnc43)[C@H](O)[C@@H]2O)c1` [MS2734], for which the “fold higher inhibitory activity than MS 2756” value in the series with NNMT [3] (aspartic amino acid replaced with glutamic acid in the SAM portion) is “over 10 fold”. Besides, in the series on NNMT [3], the “activity of previously reported bisubstrate analogs” value is listed as “moderate activities at μM range”.
On to `NC(=O)c1cccc(CCN(CC[C@H](N)C(=O)O)C[C@H]2O[C@@H](n3cnc4c(N)ncnc43)[C@H](O)[C@@H]2O)c1` [MS2756], for which the “activity of previously reported bisubstrate analogs” value in the series with NNMT [3] is on record as “moderate activities at μM range”.
One may read the Ki as the dissociation constant of the complex between target and ligand, obtained from inhibition or displacement. Turning to `NC(=O)c1cccc(C#C[C@@H](CC[C@H](N)C(=O)O)C[C@H]2O[C@@H](n3cnc4c(N)ncnc43)[C@H](O)[C@@H]2O)c1` [NS1], on NNMT [4], the Ki is around 0.0005 µM.
On to `c1ccc2ncccc2c1` [Quinoline], for which the “Km relative to nicotinamide” value in the series on NNMT [1] is “comparable to nicotinamide”.
Take `c1ccc2cnccc2c1` [isoquinoline]: the “Km relative to nicotinamide” value in the series on NNMT [1] is listed as around 3 fold.

B1: NNMT (Homo sapiens) (protein)
chain: T1 sequence (P40261 1-264)
Usually Km stands for the substrate concentration at which the rate is half of its maximum. Regarding B1, the Km (in “SAH hydrolase”; in series [5]) was 10 µM each time.
